Source: patent US20210292330A1, “PYRROLIDINE-FUSED HETEROCYCLES” (Erasca, Inc., priority 2020, published 2021)

Biological target: T1, KRAS 4B G12C protein (Homo sapiens, UniProt P01116, G12C)
T1 construct: This protein contained 188 amino acids in total, including an N-terminal 6-Histidine tag; made in house; host or cells: E. coli BL21
Test: In vitro covalent adduct formation (CAF) assay by LC-MS
Format: binding
Settings: compound 10 μM, protein 5 μM, 22° C., percentage of protein bound by the compound
How it was run: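 Percent of protein covalently modified was quantified from intact-mass LC-MS ratios of free versus adducted protein, adducts within 1 Da of expected mass. Reactions: 10 μM compound, 5 μM His-TEV-KRAS 4B G12C (1-169) in TBS pH 7.4, 4% DMSO, 22° C., one hour, run in duplicate.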

Compound | CAF (10 minutes/60 minutes) at 10 micromolar: 10 minutes | CAF (10 minutes/60 minutes) at 10 micromolar: 60 minutes
C=CC(=O)N1CCN(c2nc(OC[C@@H]3CCCN3C)nc3c2CN(C2CCc4ccccc42)C3)C[C@@H]1Cc1ncc[nH]1 (stereo partly drawn) [1-224, 1-((2S)-2-((1H-imidazol-2-yl)methyl)-4-(6-(2,3-dihydro-1H-inden-1-yl)-2-(((S)-1-methylpyrrolidin-2-yl)methoxy)-6,7-dihydro-5H-pyrrolo[3,4-d]pyrimidin-4-yl)piperazin-1-yl)prop-2-en-1-one] | 0%/ 0% | 0%/ 0%
C=C(F)C(=O)N1CCN(c2nc(OC[C@@H]3CCCN3C)nc3c2CN(Cc2n[nH]c4ccccc24)C3)C[C@@H]1CC#N [1-345] | 0%/ 0% | 0%/ 0%
C=C(F)C(=O)N1CCN(c2nc(OC[C@@H]3CCCN3C)nc3c2CN(Cc2c(Cl)ccc(O)c2Cl)C3)C[C@@H]1CC#N [1-322] | 76% | 94%
C=CC(=O)N1CC2CC1CN2c1nc(OC[C@@H]2CCCN2C)nc2c1CN(C1CCc3ccccc31)C2 (some centres unmarked) [1-249] | 0%/ 0% | 0%/ 0%
C=CC(=O)N1CCN(c2nc(Oc3cccc4ccn(C)c34)nc3c2CN(C2CCc4ccccc42)C3)C[C@@H]1CC#N (some centres unmarked) [1-166] | 2% | 15%
C=CC(=O)N1CCN(c2nc(OC[C@@H]3CCCN3C)nc3c2CN(Cc2cc(C(F)F)ccc2C)C3)[C@@H](C)C1 [1-64] | 0%/ 0% | 0%/ 0%
C=CC(=O)N1CCN(c2nc(OC[C@@H]3CCCN3C)nc3c2CN(C2CC(C)(C)c4ccc(OC)cc42)C3)C[C@@H]1CC#N (some centres unmarked) [1-186] | 14% | 36%
C=C(F)C(=O)N1CCN(c2nc(OC[C@@H]3CCCN3C)nc3c2CN(Cc2cc(O)c(Cl)cc2C)C3)C[C@@H]1CC#N [1-326, 2-[(2S)-4-{6-[(4-chloro-5-hydroxy-2-methylphenyl)methyl]-2-{[(2S)-1-methylpyrrolidin-2-yl]methoxy}-5H,7H-pyrrolo[3,4-d]pyrimidin-4-yl}-1-(2-fluoroprop-2-enoyl)piperazin-2-yl]acetonitrile] | 0% | 2%
C=CC(=O)N1CCN(c2nc(OC[C@@H]3CCCN3C)nc3c2CN(Cc2cc(Cl)ccc2C)C3)[C@@H](C)C1 [1-30] | 0% | 7%
C=CC(=O)N1CCN(c2nc(OC[C@@H]3CCCN3C)nc3c2CN(C2CCc4ccccc42)C3)C[C@@H]1CSC (some centres unmarked) [1-195] | 0% | 2%
C=C(F)C(=O)N1CCN(c2nc(OC[C@@H]3CCCN3C)nc3c2CN(C2CCc4ccc(Cl)c(Cl)c42)C3)C[C@@H]1CC#N (some centres unmarked) [1-337] | 27% | 74%
C=CC(=O)N1CCN(c2nc(OC[C@@H]3CCCN3C)nc3c2CN(Cc2c(Cl)cccc2OC(F)F)C3)[C@H](C)C1 [1-91] | 0%/ 0% | 0%/ 0%
C=CC(=O)N1CCN(c2nc(OCC3CCCC3)nc3c2CN(Cc2c(O)cccc2F)C3)C[C@@H]1CC#N [1-71] | 9% | 45%
C=CC(=O)N1CCN(c2nc(OCCN3CCOCC3)nc3c2CN(Cc2cc(OC)ccc2C)C3)[C@@H](C)C1 [1-110] | 0%/ 0% | 0%/ 0%
C=CC(=O)N1CCN(c2nc(OC[C@@H]3CCCN3C)nc3c2CN(C2CCCc4ccccc42)C3)C[C@@H]1CC#N (some centres unmarked) [1-52] | 6% | 91%
C=CC(=O)N1CCN(c2nc(OC[C@@H]3CCCN3C)nc3c2CN(Cc2cc(O)ccc2F)C3)[C@@H](C)C1 [1-50] | 53% | 92%
C=C(F)C(=O)N1CCN(c2nc(OCCC(F)F)nc3c2CN(C2CCc4ccccc42)C3)C[C@@H]1CC#N (some centres unmarked) [1-167] |  | NA/ 0%
C=CC(=O)N1CCN(c2nnc(OC)c3c2CN(Cc2cc(O)ccc2C)C3)[C@@H](C)C1 [1-37] | 0%/ 0% | 0%/ 0%
C=C(F)C(=O)N1CCN(c2nc(OC[C@@H]3CCCN3C)nc3c2CN(Cc2c(CC)ccc(O)c2C)C3)C[C@@H]1CC#N [1-253] | 93% | 94%
C=CC(=O)N1CC2CCC1CN2c1nc(OC[C@@H]2CCCN2C)nc2c1CN(Cc1cc(OC)ccc1Cl)C2 (some centres unmarked) [1-161] | 0%/ 0% | 0%/ 0%
C=CC(=O)N1CCN(c2nc(OC[C@@H]3CCCN3C(C)(C)C)nc3c2CN(C2CCc4ccccc42)C3)C[C@@H]1CC#N (some centres unmarked) [1-202] | 82% | 89%
C=CC(=O)N1C[C@H](C)N(c2nc(OC[C@@H]3CCCN3C)nc3c2CN(Cc2c(C)ccc4[nH]ncc24)C3)C[C@H]1C [1-22] | 1% | 15%

More lines, now with the values ahead:

CAF (10 minutes/60 minutes) at 10 micromolar: 10 minutes | CAF (10 minutes/60 minutes) at 10 micromolar: 60 minutes | Compound
65% | 93% | C=CC(=O)N1CCN(c2nc(OC[C@@H]3CCCN3C)nc3c2CN(Cc2cc(OC)ccc2C)C3)C[C@@H]1CC#N [1-6]
0% | 3% | C=C(F)C(=O)N1CCN(c2nc(OC[C@@H]3CCCN3C)nc3c2CN(Cc2cc(O)c(C)cc2C)C3)C[C@@H]1CC#N [1-327]
77% | 93% | C=CC(=O)N1CCN(c2nc(OC[C@@H]3CCCN3C)nc3c2CN(Cc2ccccc2CC(F)(F)F)C3)C[C@@H]1CC#N [1-225]
93% | 95% | C=CC(=O)N1CCN(c2nc(OC[C@@H]3CCCN3C)nc3c2CN(Cc2cccc4ccccc24)C3)C[C@@H]1CC#N [1-164]
46% | 98% | C=CC(=O)N1CCN(c2nc(OC[C@@H]3CCCN3C)nc3c2CN(Cc2c(C)cccc2OC)C3)C[C@@H]1CC#N [1-59]
96% | 98% | C=CC(=O)N1CCN(c2nc(OC[C@@H]3CCCN3C)nc3c2CN(Cc2c(F)cccc2OC(F)F)C3)C[C@@H]1CC#N [1-58]
28% | 74% | C=CC(=O)N1CCN(c2nc(OC[C@@H]3CCCN3C)nc3c2CN(Cc2cc(F)cc(F)c2)C3)C[C@@H]1CC#N [1-12]
59% | 89% | C=CC(=O)N1CCN(c2nc(OC[C@@H]3CCCN3C)nc3c2CN(Cc2ncccc2Cl)C3)C[C@@H]1CC#N [1-113]
98% | 99% | C=CC(=O)N1CCN(c2nc(OC[C@@H]3CCCN3C)nc3c2CN(Cc2c(C)cccc2C)C3)C[C@@H]1CC#N [1-29]
57% | 61% | C=CC(=O)N1CCN(c2nc(OC[C@@H]3CCCN3C)nc3c2CN(C(C)c2ccccc2C(C)C)C3)C[C@@H]1CC#N (some centres unmarked) [1-189]
95% | 98% | C=CC(=O)N1CCN(c2nc(OC[C@@H]3CCCN3C)nc3c2CN(C(C)c2c(F)cccc2OC)C3)C[C@@H]1CC#N (some centres unmarked) [1-97]
40% | 86% | C=CC(=O)N1CCN(c2nc(OC[C@@H]3CCCN3C)nc3c2CN(Cc2cc(OC(F)F)ccc2Cl)C3)C[C@@H]1CC#N [1-53]
6% | 33% | C=CC(=O)N1CCN(c2nc(OC[C@@H]3CCCN3C)nc3c2CN(Cc2c(C)cccc2C)C3)[C@@H](C)C1 [1-3]
57% | 74% | C=CC(=O)N1CCN(c2nc(OC[C@@H]3CCCN3C)nc3c2CN(C(C)c2ccccc2Cl)C3)C[C@@H]1CC#N (some centres unmarked) [1-120]
98% | 99% | C=CC(=O)N1CCN(c2nc(OC[C@@H]3CCCN3C)nc3c2CN(Cc2cc(O)ccc2F)C3)C[C@@H]1CC#N [1-46]
93% | 95% | C=C(F)C(=O)N1CCN(c2nc(OC[C@@H]3CCCN3C)nc3c2CN(Cc2c(Cl)ccc(O)c2C)C3)C[C@@H]1CC#N [1-311]
68% | 97% | C=CC(=O)N1CCN(c2nc(OC[C@@H]3CCCN3C)nc3c2CN(Cc2cc(F)ccc2F)C3)C[C@@H]1CC#N [1-27]
96% | 97% | C=CC(=O)N1CCN(c2nc(OC[C@@H]3CCCN3C)nc3c2CN(Cc2cc(O)ccc2C(C)C)C3)C[C@@H]1CC#N [1-185]
27% | 43% | C=CC(=O)N1CCN(c2nc(OC[C@@H]3CCCN3C)nc3c2CN(Cc2ccccc2)C3)C[C@@H]1CC#N [1-77]
94% | 98% | C=CC(=O)N1CCN(c2nc(OC[C@@H]3CCCN3C)nc3c2CN(Cc2ccccc2C)C3)C[C@@H]1CC#N [1-45]
